Experimental data taken from patent US20250177363A1, “SUBSTITUTED IMIDAZOPYRIDINYL COMPOUNDS USEFUL AS INHIBITORS OF TLR9” (Bristol-Myers Squibb Company, priority 2022, published 2025).

What was measured:
Format in all cases: cell-based
[1] = molecular target: T1, human TLR7 (Homo sapiens, UniProt Q9NYK1); experiment: TLR7 inhibition reporter assay (HEK-Blue, SEAP); conditions: HEK-Blue cells overexpressing human TLR7, ligand gardiquimod 2.5 μM, 22 hour incubation
T1 construct: host or cells: HEK-Blue cells
T1 sequence (Q9NYK1 27-1049): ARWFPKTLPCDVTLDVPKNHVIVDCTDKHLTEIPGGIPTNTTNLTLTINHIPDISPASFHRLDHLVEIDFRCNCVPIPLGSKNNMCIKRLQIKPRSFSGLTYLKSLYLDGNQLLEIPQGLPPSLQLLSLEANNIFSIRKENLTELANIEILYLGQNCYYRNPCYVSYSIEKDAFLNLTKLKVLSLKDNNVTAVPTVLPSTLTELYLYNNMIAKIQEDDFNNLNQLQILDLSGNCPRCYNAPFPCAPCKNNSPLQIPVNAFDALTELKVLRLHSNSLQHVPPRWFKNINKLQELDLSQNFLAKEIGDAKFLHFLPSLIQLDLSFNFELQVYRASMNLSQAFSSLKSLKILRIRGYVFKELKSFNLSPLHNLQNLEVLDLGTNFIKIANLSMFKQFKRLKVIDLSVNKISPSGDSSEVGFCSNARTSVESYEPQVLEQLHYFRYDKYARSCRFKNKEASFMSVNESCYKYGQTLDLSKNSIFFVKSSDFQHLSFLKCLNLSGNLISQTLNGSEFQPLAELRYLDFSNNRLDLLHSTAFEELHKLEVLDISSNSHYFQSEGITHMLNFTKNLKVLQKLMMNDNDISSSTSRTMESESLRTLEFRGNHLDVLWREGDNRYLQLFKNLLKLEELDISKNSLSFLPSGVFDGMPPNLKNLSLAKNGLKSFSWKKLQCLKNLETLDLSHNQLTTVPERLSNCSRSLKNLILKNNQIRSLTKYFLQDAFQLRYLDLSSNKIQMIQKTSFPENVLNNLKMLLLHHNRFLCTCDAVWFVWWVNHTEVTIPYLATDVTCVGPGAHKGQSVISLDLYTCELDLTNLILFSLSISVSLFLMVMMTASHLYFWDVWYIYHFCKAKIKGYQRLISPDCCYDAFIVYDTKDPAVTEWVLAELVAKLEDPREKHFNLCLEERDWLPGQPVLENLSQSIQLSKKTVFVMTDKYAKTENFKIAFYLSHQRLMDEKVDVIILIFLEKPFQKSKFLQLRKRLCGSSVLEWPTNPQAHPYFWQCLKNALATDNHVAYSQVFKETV
Outline: (§1)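 HEK-Blue cells expressing human TLR7, TLR8 or TLR9 with NF-κB/AP-1-driven SEAP reporter; compounds 0.85 nM–50 μM, pre-treated 60 min. Stimulation: gardiquimod 2.5 μM (TLR7), R848 14.25 μM (TLR8), ODN2006 200 nM (TLR9); SEAP read after 22 h at 37 °C. Percent inhibition normalized between agonist+DMSO and known-inhibitor wells.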

[2] = molecular target: T2, human TLR9 (Homo sapiens, UniProt Q9NR96); experiment: TLR9 inhibition reporter assay (HEK-Blue, SEAP); conditions: HEK-Blue cells overexpressing human TLR9, ligand ODN2006 200 nM, 22 hour incubation
T2 construct: host or cells: HEK-Blue cells
T2 sequence (Q9NR96 26-1032): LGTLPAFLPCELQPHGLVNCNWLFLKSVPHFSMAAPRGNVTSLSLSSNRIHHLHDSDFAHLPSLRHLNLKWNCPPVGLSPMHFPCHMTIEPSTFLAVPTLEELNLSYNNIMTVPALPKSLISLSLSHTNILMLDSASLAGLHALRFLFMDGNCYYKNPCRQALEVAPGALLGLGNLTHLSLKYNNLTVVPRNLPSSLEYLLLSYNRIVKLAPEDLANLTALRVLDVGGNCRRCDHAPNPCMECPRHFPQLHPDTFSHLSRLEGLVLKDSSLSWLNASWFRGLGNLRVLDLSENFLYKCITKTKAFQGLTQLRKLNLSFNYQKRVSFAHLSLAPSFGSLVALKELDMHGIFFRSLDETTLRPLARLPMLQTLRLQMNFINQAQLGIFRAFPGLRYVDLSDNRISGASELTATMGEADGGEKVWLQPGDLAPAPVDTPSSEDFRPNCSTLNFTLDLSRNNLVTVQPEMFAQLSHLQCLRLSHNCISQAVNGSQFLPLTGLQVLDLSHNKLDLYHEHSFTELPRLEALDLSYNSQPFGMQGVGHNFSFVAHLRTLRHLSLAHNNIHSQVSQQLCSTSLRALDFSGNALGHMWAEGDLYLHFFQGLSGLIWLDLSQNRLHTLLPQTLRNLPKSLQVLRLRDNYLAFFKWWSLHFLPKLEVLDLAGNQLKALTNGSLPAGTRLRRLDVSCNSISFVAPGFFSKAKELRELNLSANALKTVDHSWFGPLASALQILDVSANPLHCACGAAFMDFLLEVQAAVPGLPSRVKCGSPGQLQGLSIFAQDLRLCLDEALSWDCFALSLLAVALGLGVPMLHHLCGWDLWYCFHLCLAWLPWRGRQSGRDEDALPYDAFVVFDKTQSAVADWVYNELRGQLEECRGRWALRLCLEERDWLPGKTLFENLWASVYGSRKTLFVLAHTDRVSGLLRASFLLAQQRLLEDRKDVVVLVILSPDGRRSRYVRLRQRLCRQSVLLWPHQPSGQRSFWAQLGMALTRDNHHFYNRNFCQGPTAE
Outline: as §1

[3] = molecular target: T3, human TLR8 (Homo sapiens, UniProt Q9NR97); experiment: TLR8 inhibition reporter assay (HEK-Blue, SEAP); conditions: HEK-Blue cells overexpressing human TLR8, ligand R848 14.25 μM, 22 hour incubation
T3 construct: host or cells: HEK-Blue cells
T3 sequence (Q9NR97 27-1041): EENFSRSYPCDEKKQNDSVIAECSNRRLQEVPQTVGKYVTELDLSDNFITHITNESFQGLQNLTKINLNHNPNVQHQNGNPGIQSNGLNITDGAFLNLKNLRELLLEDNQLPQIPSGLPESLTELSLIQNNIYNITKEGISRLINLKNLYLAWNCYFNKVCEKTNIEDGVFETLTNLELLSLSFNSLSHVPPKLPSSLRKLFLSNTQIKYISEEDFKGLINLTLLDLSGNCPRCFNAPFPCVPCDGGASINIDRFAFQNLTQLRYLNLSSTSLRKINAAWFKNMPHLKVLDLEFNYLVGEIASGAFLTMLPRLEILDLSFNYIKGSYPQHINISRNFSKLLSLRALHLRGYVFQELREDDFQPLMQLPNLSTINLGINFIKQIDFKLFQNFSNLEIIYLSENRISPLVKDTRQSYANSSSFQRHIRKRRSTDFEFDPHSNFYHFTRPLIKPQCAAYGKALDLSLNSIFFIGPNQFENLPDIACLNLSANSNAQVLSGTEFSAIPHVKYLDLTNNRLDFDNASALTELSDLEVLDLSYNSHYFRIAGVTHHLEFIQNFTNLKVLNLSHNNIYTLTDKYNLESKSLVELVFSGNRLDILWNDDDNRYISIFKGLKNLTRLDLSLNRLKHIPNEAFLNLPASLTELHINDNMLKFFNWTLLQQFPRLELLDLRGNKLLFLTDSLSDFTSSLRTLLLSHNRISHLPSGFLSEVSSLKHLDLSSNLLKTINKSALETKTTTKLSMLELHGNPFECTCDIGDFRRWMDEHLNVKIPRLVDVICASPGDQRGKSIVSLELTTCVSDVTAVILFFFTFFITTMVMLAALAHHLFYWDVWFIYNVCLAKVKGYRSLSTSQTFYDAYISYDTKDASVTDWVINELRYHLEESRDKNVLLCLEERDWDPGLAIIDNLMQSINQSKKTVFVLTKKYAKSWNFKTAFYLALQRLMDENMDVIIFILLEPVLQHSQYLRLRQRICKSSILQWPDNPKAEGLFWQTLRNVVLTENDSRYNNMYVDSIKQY
Outline: as §1

IC50 [1] [µM]	IC50 [2] [µM]	IC50 [3] [µM]	Structure (SMILES)
> 50	3.2	> 50	CS(=O)(=O)c1ccc(-c2nc3ccc(-c4ccc(N5CCN(CCN6CCOCC6)CC5)cc4)nc3n2C2CC2)cc1 [Example 57, 4-(2-(4-(4-(3-cyclopropyl-2-(4-(methylsulfonyl)phenyl)-3H-imidazo[4,5-b]pyridin-5-yl)phenyl)piperazin-1-yl)ethyl)morpholine]
1.6	0.54	15	COc1ccc(-c2nc3c(C)cc(-c4ccc(N5CCC6(CC5)CN(C(C)C)C6)cc4)nc3n2C)cc1OC [Example 58, 2-(3,4-dimethoxyphenyl)-5-(4-(2-isopropyl-2,7-diazaspiro[3.5]nonan-7-yl)phenyl)-3,7-dimethyl-3H-imidazo[4,5-b]pyridine]
2.5	1.1	3.6	COc1ccc(-c2nc3c(C)cc(-c4ccc(N5CCC6(CC5)CN(CC(C)C)C6)cc4)nc3n2C)cc1OC [Example 60, 2-(3,4-dimethoxyphenyl)-5-(4-(2-isobutyl-2,7-diazaspiro[3.5]nonan-7-yl)phenyl)-3,7-dimethyl-3H-imidazo[4,5-b]pyridine]
16	0.56	18	CC(C)N1CC2(CCN(c3ccc(-c4ccc5nc(-c6ccc(S(C)(=O)=O)cc6)n(C)c5n4)cc3)CC2)C1 [Example 61, 5-(4-(2-isopropyl-2,7-diazaspiro[3.5]nonan-7-yl)phenyl)-3-methyl-2-(4-(methylsulfonyl)phenyl)-3H-imidazo[4,5-b]pyridine]
15	0.59	6.1	CC(C)CN1CC2(CCN(c3ccc(-c4ccc5nc(-c6ccc(S(C)(=O)=O)cc6)n(C)c5n4)cc3)CC2)C1 [Example 62, 5-(4-(2-isobutyl-2,7-diazaspiro[3.5]nonan-7-yl)phenyl)-3-methyl-2-(4-(methylsulfonyl)phenyl)-3H-imidazo[4,5-b]pyridine]
4.2	0.55	44	Cn1c(-c2ccc(S(C)(=O)=O)cc2)nc2ccc(-c3ccc(N4CCC5(CC4)CN(CC(C)(C)O)C5)cc3)nc21 [Example 63, 2-methyl-1-(7-(4-(3-methyl-2-(4-(methylsulfonyl)phenyl)-3H-imidazo[4,5-b]pyridin-5-yl)phenyl)-2,7-diazaspiro[3.5]nonan-2-yl)propan-2-ol]
6.3	1.4	9.8	COc1ccc(-c2nc3c(C)cc(-c4ccc(N5CC6(CN(CC(C)C)C6)C5)cc4)nc3n2C)cc1OC [Example 64, 2-(3,4-dimethoxyphenyl)-5-(4-(6-isobutyl-2,6-diazaspiro[3.3]heptan-2-yl)phenyl)-3,7-dimethyl-3H-imidazo[4,5-b]pyridine]
> 50	0.74	3	CC(C)N1CC2(CN(c3ccc(-c4ccc5nc(-c6ccc(S(C)(=O)=O)cc6)n(C)c5n4)cc3)C2)C1 [Example 65, 5-(4-(6-isopropyl-2,6-diazaspiro[3.3]heptan-2-yl)phenyl)-3-methyl-2-(4-(methylsulfonyl)phenyl)-3H-imidazo[4,5-b]pyridine]
> 50	0.57	> 25	CC(C)CN1CC2(C1)CN(c1ccc(-c3ccc4nc(-c5ccc(S(C)(=O)=O)cc5)n(C)c4n3)cc1)C2 [Example 66, 5-(4-(6-isobutyl-2,6-diazaspiro[3.3]heptan-2-yl)phenyl)-3-methyl-2-(4-(methylsulfonyl)phenyl)-3H-imidazo[4,5-b]pyridine]
